In paper PMC5453931, “Cathelicidin-trypsin inhibitor loop conjugate represents a promising antibiotic candidate with protease stability” (Scientific Reports, 2017):
Values after ≈ are worked out from the molar mass of the structure shown. Where a SMILES comes first, the peptide text is derived from it.

Experiments:
Format in all cases: cell-based
S. dysenteria = details: two-fold broth microdilution, MH broth, 37 °C, 18 h, A595; mean of three independent experiments in duplicate
Description: (§1) A two-fold broth microdilution method described in our previous paper was used to determine the antimicrobial activities of parental and hybrid peptides. More than 30 strains including Gram-negative bacteria, Gram-positive bacteria and fungi were used in the current assay, in which the standard strains were stored in our lab and the clinical strains were collected from local hospitals. Briefly, bacteria were incubated in Mueller-Hinton broth (MH broth) at 37 °C to exponential phase and diluted to 10^6 CFU/mL. A serial dilution of peptide sample were prepared in 96-well microtiter plates (50 μL) and mixed with equal volume of microbial inoculums (50 μL). The plate was slowly shaken in the microbial incubator, and measured at A595 after incubation at 37 °C for 18 h. The minimal concentrations at which no microbial growth occurred were recorded as MIC (minimal inhibitory concentration) values. The traditional antibiotic ampicillin was used as positive control. The results are shown in an average of the MICs obtained from three independent experiments.

E. coli = details: 18 h
Description: as §1

S. aureus = details: 18 h
Description: as §1

P. mirabilis = details: 18 h
Description: as §1

C. albican = details: 18 h
Description: as §1

P. aeruginosa = details: 18 h
Description: as §1

Vibrio Parahaemolyticus = assay: MIC, two-fold broth microdilution; details: Vibrio parahaemolyticus, 18 h, read-out: MIC Vibrio Parahaemolyticus
Description: as §1

CC(C)C[C@H](NC(=O)[C@H](CCCNC(=N)N)NC(=O)[C@H](CCCCN)NC(=O)[C@H](Cc1ccccc1)NC(=O)[C@H](Cc1ccccc1)NC(=O)[C@@H](N)CCCCN)C(=O)N[C@@H](CC(C)C)C(=O)N[C@@H](CCCCN)C(=O)N[C@@H](CO)C(=O)N[C@H](C(=O)N[C@@H](CCCNC(=N)N)C(=O)N[C@@H](CCCNC(=N)N)C(=O)N[C@@H](C)C(=O)N[C@H](C(=O)N[C@@H](CCCCN)C(=O)N[C@@H](CCCCN)C(N)=O)C(C)C)C(C)C [Hc4] (H-KFFKRLLKSVRRAVKK-NH2)
MIC S. dysenteria (S. dysenteria): 4.69 µg/mL (≈ 2.34 µM)
MIC E. coli (E. coli): 75 µg/mL (≈ 37.4 µM)
MIC S. aureus (S. aureus): 75 µg/mL (≈ 37.4 µM)
MIC P. mirabilis (P. mirabilis): 75 µg/mL (≈ 37.4 µM)
MIC C. albican (C. albican): 75 µg/mL (≈ 37.4 µM)
MIC P. aeruginosa (P. aeruginosa): 150 µg/mL (≈ 74.9 µM)

CC(C)C[C@H](NC(=O)[C@H](CCCNC(=N)N)NC(=O)[C@H](CCCCN)NC(=O)[C@H](Cc1ccccc1)NC(=O)[C@H](Cc1ccccc1)NC(=O)[C@@H](N)CCCCN)C(=O)N[C@@H](CC(C)C)C(=O)N[C@@H](CCCCN)C(=O)N[C@@H](CO)C(=O)N[C@H](C(=O)N[C@@H](CCCNC(=N)N)C(=O)N[C@@H](CCCNC(=N)N)C(=O)N[C@@H](C)C(N)=O)C(C)C [Hc7] (H-KFFKRLLKSVRRA-NH2)
MIC S. dysenteria (S. dysenteria): 75 µg/mL (≈ 45.5 µM)
MIC P. aeruginosa (P. aeruginosa): 150 µg/mL (≈ 91 µM)

CC(C)C[C@H](NC(=O)[C@H](CC(C)C)NC(=O)[C@H](CCCNC(=N)N)NC(=O)[C@H](CCCCN)NC(=O)[C@@H](N)Cc1ccccc1)C(=O)N[C@@H](CCCCN)C(=O)N[C@@H](CO)C(=O)N[C@H](C(=O)N[C@@H](CCCNC(=N)N)C(=O)N[C@@H](CCCNC(=N)N)C(=O)N[C@@H](C)C(=O)N[C@H](C(=O)N[C@@H](CCCCN)C(=O)N[C@@H](CCCCN)C(=O)N[C@@H](Cc1ccccc1)C(=O)N[C@@H](CCCNC(=N)N)C(=O)N[C@@H](CCCCN)C(N)=O)C(C)C)C(C)C [Hc9] (H-FKRLLKSVRRAVKKFRK-NH2)
MIC S. dysenteria (S. dysenteria): 18.75 µg/mL (≈ 8.68 µM)
MIC E. coli (E. coli): 150 µg/mL (≈ 69.5 µM)
MIC S. aureus (S. aureus): 9.38 µg/mL (≈ 4.34 µM)
MIC C. albican (C. albican): 150 µg/mL (≈ 69.5 µM)
MIC P. aeruginosa (P. aeruginosa): 150 µg/mL (≈ 69.5 µM)

CC(C)C[C@H](NC(=O)[C@H](CC(C)C)NC(=O)[C@@H](N)CCCNC(=N)N)C(=O)N[C@@H](CCCCN)C(=O)N[C@@H](CO)C(=O)N[C@H](C(=O)N[C@@H](CCCNC(=N)N)C(=O)N[C@@H](CCCNC(=N)N)C(=O)N[C@@H](C)C(=O)N[C@H](C(=O)N[C@@H](CCCCN)C(=O)N[C@@H](CCCCN)C(=O)N[C@@H](Cc1ccccc1)C(=O)N[C@@H](CCCNC(=N)N)C(=O)N[C@@H](CCCCN)C(N)=O)C(C)C)C(C)C [Hc11] (H-RLLKSVRRAVKKFRK-NH2)
MIC S. dysenteria (S. dysenteria): 150 µg/mL (≈ 79.6 µM)

CC(C)C[C@H](NC(=O)[C@H](CC(C)C)NC(=O)[C@H](CCCNC(=N)N)NC(=O)[C@H](CCCCN)NC(=O)[C@@H](N)Cc1ccccc1)C(=O)N[C@@H](CCCCN)C(=O)N[C@@H](CO)C(=O)N[C@H](C(=O)N[C@@H](CCCNC(=N)N)C(=O)N[C@@H](CCCNC(=N)N)C(=O)N[C@@H](C)C(=O)N[C@H](C(=O)N[C@@H](CCCCN)C(=O)N[C@@H](CCCCN)C(=O)N[C@@H](Cc1ccccc1)C(N)=O)C(C)C)C(C)C [Hc15] (H-FKRLLKSVRRAVKKF-NH2)
MIC S. dysenteria (S. dysenteria): 37.5 µg/mL (≈ 20 µM)
MIC E. coli (E. coli): 75 µg/mL (≈ 40 µM)

C[C@@H](O)[C@H]1C(=O)N2C(C(=O)O)=C(S[C@@H]3CN[C@H](C(=O)N(C)C)C3)[C@H](C)[C@H]12 [Meropenem, reference compound]
MIC (Vibrio Parahaemolyticus): 0.47 µg/mL (≈ 1.23 µM)
